Assay results reported in patent publication US20230357722A1, “METHODS FOR IDENTIFYING MODULATORS OF NATURAL KILLER CELL INTERACTIONS” (The Johns Hopkins University, priority 2020, published 2023).

Assays:
Format in all cases: cell-based, mouse
[1] = tested on: tumor-exposed NK cell-MMTV-PyMT tumor cluster co-culture; test: teNK cell-MMTV-PyMT tumor cluster co-culture colony formation assay; conditions: teNK cells pretreated with DNMT inhibitor at 1 μM for 24 hours before co-culture; FIG. 5C
Excerpt: The capacity of candidate immunotherapies to reverse the effect of teNK cells on colony formation was investigated. Anti-PD-1 therapy has been reported to restore the function of anergic NK cells (Hsu J, et al. J Clin Invest. 2018; 128(10):4654-68). […] Targeted receptors were next identified in the RNA expression analysis, specifically TIGIT and KLRG1. TIGIT is an emerging immune checkpoint on NK cells and T cells and anti-TIGIT therapies are in clinical trials (Zhang Q, et al. Blockade of the checkpoint receptor TIGIT prevents NK cell exhaustion and elicits potent anti-tumor immunity. Nat Immunol. 2018; 19(7):723-32). KLRG1, a marker of senescent NK cells and T cells and a recently reported inhibitor of NK cell function (Muller-Durovic B, et al. J Immunol. 2016; 197(7):2891-9), was highly expressed by teNK cells. […] The broad gene expression differences between hNK and teNK cells provided the motivation to identify epigenetic regulators of NK cell state. […] Experiments were then carried out seeking to validate the functional significance of these findings in the co-culture models. […] It was assessed whether the combination of FDA approved DNA methyltransferase inhibitors and anti-TIGIT or anti-KLRG1 would prevent colonies from being formed in co-culture. […]

KLRG1 = test: RT-qPCR of KLRG1 in teNK cells treated with DNMT inhibitors; conditions: teNK cells pretreated with DNMT inhibitor; FIG. 10F
Excerpt: (§1) Natural killer cell isolation. Primary splenocytes were isolated by mechanical dissociation from spleens of wild-type FVB/n, MMTV-PyMT, or C3(1)-Tag mice, or from the tumors of MMTV-PyMT mice. NK cells isolated from WT FVB/n mice are defined as healthy NK (hNK) cells and those isolated from tumor bearing mice are defined as tumor-exposed NK (teNK) cells. NK cells isolated from MMTV-PyMT tumors are defined as tumor-infiltrating NK cells. The NK cells were purified from isolated splenocytes using EasySep Mouse NK Cell Isolation Kit per the manufacturer's protocol (#19855; Stemcell Technologies). The isolated cells were then positively selected by FACS by gating on CD49b+/CD3− cells and CD45+/CD49b+/CD3− for NK cells isolated from tumors. NK cells were cultured in media at 37° C. containing 200 U/ml recombinant mouse IL-2 (#402-ML-100, R&D Systems), 5 ng/ml recombinant mouse IL-15 (#447-ML-010, R&D Systems) or 5 ng/ml recombinant mouse IL-I5:IL-15R complex (#14-8152-62, Thermo Fisher) for 16 h before use in assays. […]
(§2) RNA Extraction and Quantitative PCR. […] Quantitative PCR was conducted using the SsoAdvanced Universal SYBR Green Supermix (BioRad #1725271) with 500 pg cDNA and 500 nM primers per reaction. […] Target gene expression values were normalized to GAPDH expression and fold change was calculated as 2-ΔΔCt. […]

TIGIT = test: RT-qPCR of TIGIT in teNK cells treated with DNMT inhibitors; conditions: teNK cells pretreated with DNMT inhibitor; FIG. 10F
Excerpt: as §1, §2

SMILES: Nc1ncn([C@@H]2O[C@H](CO)[C@@H](O)[C@H]2O)c(=O)n1 [azacitidine]
- colony formation (normalized colony count) [1]: neutralized the effect of teNK cells in co-culture
- gene expression of KLRG1 by qPCR (KLRG1): reduced gene expression of TIGIT and KLRG1
- gene expression of TIGIT by qPCR (TIGIT): reduced gene expression of TIGIT
